Assay results published in article PMC6979384, “Characterization of the plant homeodomain (PHD) reader family for their histone tail interactions” (Epigenetics & Chromatin, 2020).

Experiments:
Test in all cases: Histone peptide microarray
Assay type in all cases: binding, human
ING2 = settings: for Array Heatmap value (peptide array signal): ING2, sheet "Array Heatmap", each array performed twice, total n = 4
Method in brief: (§1)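 Mean ± SD of 4 replicate array intensities; GST-PHD finger at 0.5 μM against 293 PTM-bearing histone peptides.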

KDM5B (1) = settings: KDM5B (1); for Array Heatmap value (peptide array signal): sheet "Array Heatmap", each array performed twice, total n = 4
Method in brief: as §1

BAZ2B = settings: BAZ2B; for Array Heatmap value (peptide array signal): sheet "Array Heatmap", each array performed twice, total n = 4
Method in brief: as §1

KDM4C (TTP) = settings: KDM4C (TTP); for Array Heatmap value (peptide array signal): sheet "Array Heatmap", each array performed twice, total n = 4
Method in brief: as §1

KDM5A (3) = settings: KDM5A (3); for Array Heatmap value (peptide array signal): sheet "Array Heatmap", each array performed twice, total n = 4
Method in brief: as §1

CHD5 (PPCC) = settings: CHD5 (PPCC); for Array Heatmap value (peptide array signal): sheet "Array Heatmap", each array performed twice, total n = 4
Method in brief: as §1

PHF21A = settings: PHF21A; for Array Heatmap value (peptide array signal): sheet "Array Heatmap", each array performed twice, total n = 4
Method in brief: as §1

TRIM66 (PB) = settings: TRIM66 (PB); for Array Heatmap value (peptide array signal): sheet "Array Heatmap", each array performed twice, total n = 4
Method in brief: as §1

ING3 = settings: for Array Heatmap value (peptide array signal): ING3, sheet "Array Heatmap", each array performed twice, total n = 4
Method in brief: as §1

PHF2 = settings: for Array Heatmap value (peptide array signal): PHF2, sheet "Array Heatmap", each array performed twice, total n = 4
Method in brief: as §1

MORC3 (CW) = settings: MORC3 (CW); for Array Heatmap value (peptide array signal): sheet "Array Heatmap", each array performed twice, total n = 4
Method in brief: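 Binding read as mean relative signal from 4 replicates; microarray held 293 synthetic histone peptides with single or combinatorial PTMs. Each GST-tagged PHD reader was applied at 0.5 μM using the optimized Petell protocol.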

RAG2 = settings: for Array Heatmap value (peptide array signal): RAG2, sheet "Array Heatmap", each array performed twice, total n = 4
Method in brief: as §1

KDM5B (3) = settings: KDM5B (3); for Array Heatmap value (peptide array signal): sheet "Array Heatmap", each array performed twice, total n = 4
Method in brief: as §1

DIDO1 = settings: for Array Heatmap value (peptide array signal): DIDO1, sheet "Array Heatmap", each array performed twice, total n = 4
Method in brief: as §1

CHD4 (PPCC) = settings: CHD4 (PPCC); for Array Heatmap value (peptide array signal): sheet "Array Heatmap", each array performed twice, total n = 4
Method in brief: as §1

KDM7A = settings: KDM7A; for Array Heatmap value (peptide array signal): sheet "Array Heatmap", each array performed twice, total n = 4
Method in brief: as §1

ING5 = settings: for Array Heatmap value (peptide array signal): ING5, sheet "Array Heatmap", each array performed twice, total n = 4
Method in brief: as §1

AIRE (PP) = settings: AIRE (PP); for Array Heatmap value (peptide array signal): sheet "Array Heatmap", each array performed twice, total n = 4
Method in brief: as §1

PHF23 = settings: for Array Heatmap value (peptide array signal): PHF23, sheet "Array Heatmap", each array performed twice, total n = 4
Method in brief: as §1

TAF3 = settings: for Array Heatmap value (peptide array signal): TAF3, sheet "Array Heatmap", each array performed twice, total n = 4
Method in brief: as §1

ING1 = settings: for Array Heatmap value (peptide array signal): ING1, sheet "Array Heatmap", each array performed twice, total n = 4
Method in brief: as §1

PHRF1 (RP) = settings: PHRF1 (RP); for Array Heatmap value (peptide array signal): sheet "Array Heatmap", each array performed twice, total n = 4
Method in brief: as §1

KDM5A (1) = settings: KDM5A (1); for Array Heatmap value (peptide array signal): sheet "Array Heatmap", each array performed twice, total n = 4
Method in brief: as §1

ING4 = settings: for Array Heatmap value (peptide array signal): ING4, sheet "Array Heatmap", each array performed twice, total n = 4
Method in brief: as §1

PHF13 = settings: for Array Heatmap value (peptide array signal): PHF13, sheet "Array Heatmap", each array performed twice, total n = 4
Method in brief: as §1

DPF2 (PPC2W2) = settings: DPF2 (PPC2W2); for Array Heatmap value (peptide array signal): sheet "Array Heatmap", each array performed twice, total n = 4
Method in brief: as §1

SP140L = settings: SP140L; for Array Heatmap value (peptide array signal): sheet "Array Heatmap", each array performed twice, total n = 4
Method in brief: as §1

PHF8 = settings: for Array Heatmap value (peptide array signal): PHF8, sheet "Array Heatmap", each array performed twice, total n = 4
Method in brief: as §1

BPTF (PB) = settings: BPTF (PB); for Array Heatmap value (peptide array signal): sheet "Array Heatmap", each array performed twice, total n = 4
Method in brief: as §1

MLL5 = settings: for Array Heatmap value (peptide array signal): MLL5, sheet "Array Heatmap", each array performed twice, total n = 4
Method in brief: as §1

CHD5 (PCC) = settings: CHD5 (PCC); for Array Heatmap value (peptide array signal): sheet "Array Heatmap", each array performed twice, total n = 4
Method in brief: as §1

[1] = GST-tagged, arrays performed twice, n of 4

In the case of H4K8me1: H4 1-23 [Peptide H4K8me1], the “Array Heatmap value (peptide array binding signal)” value (ING2; ING2, GST-tagged, arrays performed twice, n of 4) is reported as 0.5951, the “Array Heatmap value (peptide array binding signal)” value (KDM5B (1); [1]) is reported as 0.6396 and the “Array Heatmap value (peptide array binding signal)” value (BAZ2B; [1]) is reported as 0.4726. The “Array Heatmap value (peptide array binding signal)” value (KDM4C (TTP); [1]) was 0.4883, the “Array Heatmap value (peptide array binding signal)” value (KDM5A (3); [1]) was 0.4616 and the “Array Heatmap value (peptide array binding signal)” value (CHD5 (PPCC); [1]) was 0.558. The “Array Heatmap value (peptide array binding signal)” value (PHF21A; [1]) was 0.4915, the “Array Heatmap value (peptide array binding signal)” value (TRIM66 (PB); [1]) was 0.6142 and the “Array Heatmap value (peptide array binding signal)” value (ING3; ING3, GST-tagged, arrays performed twice, n of 4) was 0.514. For the same substance, the “Array Heatmap value (peptide array binding signal)” value (PHF2; PHF2, GST-tagged, arrays performed twice, n of 4) was 0.5963, the “Array Heatmap value (peptide array binding signal)” value (MORC3 (CW); [1]) was 0.3765 and the “Array Heatmap value (peptide array binding signal)” value (RAG2; RAG2, GST-tagged, arrays performed twice, n of 4) was 0.2588. The “Array Heatmap value (peptide array binding signal)” value (KDM5B (3); [1]) was 0.4591, the “Array Heatmap value (peptide array binding signal)” value (DIDO1; DIDO1, GST-tagged, arrays performed twice, n of 4) was 0.7218 and the “Array Heatmap value (peptide array binding signal)” value (CHD4 (PPCC); [1]) was 0.6125. For the same substance, the “Array Heatmap value (peptide array binding signal)” value (KDM7A; [1]) was 0.3413, the “Array Heatmap value (peptide array binding signal)” value (ING5; ING5, GST-tagged, arrays performed twice, n of 4) was 0.3641 and the “Array Heatmap value (peptide array binding signal)” value (AIRE (PP); [1]) was 0.4246. The “Array Heatmap value (peptide array binding signal)” value (PHF23; PHF23, GST-tagged, arrays performed twice, n of 4) was 0.5427, the “Array Heatmap value (peptide array binding signal)” value (TAF3; TAF3, GST-tagged, arrays performed twice, n of 4) was 0.2722 and the “Array Heatmap value (peptide array binding signal)” value (ING1; ING1, GST-tagged, arrays performed twice, n of 4) was 0.5733. For the same substance, the “Array Heatmap value (peptide array binding signal)” value (PHRF1 (RP); [1]) was 0.4962, the “Array Heatmap value (peptide array binding signal)” value (KDM5A (1); [1]) was 0.445 and the “Array Heatmap value (peptide array binding signal)” value (ING4; ING4, GST-tagged, arrays performed twice, n of 4) was 0.4749. For the same substance, the “Array Heatmap value (peptide array binding signal)” value (PHF13; PHF13, GST-tagged, arrays performed twice, n of 4) was 0.6242, the “Array Heatmap value (peptide array binding signal)” value (DPF2 (PPC2W2); [1]) was 0.7109 and the “Array Heatmap value (peptide array binding signal)” value (SP140L; [1]) was 0.3853. For the same substance, the “Array Heatmap value (peptide array binding signal)” value (PHF8; PHF8, GST-tagged, arrays performed twice, n of 4) was 0.3718, the “Array Heatmap value (peptide array binding signal)” value (BPTF (PB); [1]) was 0.3716 and the “Array Heatmap value (peptide array binding signal)” value (MLL5; MLL5, GST-tagged, arrays performed twice, n of 4) was 0.5584. For the same substance, the “Array Heatmap value (peptide array binding signal)” value (CHD5 (PCC); [1]) was 0.8139.
With H3K4me1 (1-21): H3 1-21 the “Array Heatmap value (peptide array signal)” value (ING2) was 0.622, the “Array Heatmap value (peptide array signal)” value (KDM5B (1)) was 0.658 and the “Array Heatmap value (peptide array signal)” value (BAZ2B) was 0.4634. For the same substance, the “Array Heatmap value (peptide array signal)” value (KDM4C (TTP)) was 0.468, the “Array Heatmap value (peptide array signal)” value (KDM5A (3)) was 0.5345 and the “Array Heatmap value (peptide array signal)” value (CHD5 (PPCC)) was 0.5364. The “Array Heatmap value (peptide array signal)” value (PHF21A) was 0.4499, the “Array Heatmap value (peptide array signal)” value (TRIM66 (PB)) was 0.5876 and the “Array Heatmap value (peptide array signal)” value (ING3) was 0.4698. The “Array Heatmap value (peptide array signal)” value (PHF2) was 0.5317, the “Array Heatmap value (peptide array signal)” value (MORC3 (CW)) was 0.4815 and the “Array Heatmap value (peptide array signal)” value (RAG2) was 0.2554. For the same substance, the “Array Heatmap value (peptide array signal)” value (KDM5B (3)) was 0.4879, the “Array Heatmap value (peptide array signal)” value (DIDO1) was 0.6834 and the “Array Heatmap value (peptide array signal)” value (CHD4 (PPCC)) was 0.5532. For the same substance, the “Array Heatmap value (peptide array signal)” value (KDM7A) was 0.3293, the “Array Heatmap value (peptide array signal)” value (ING5) was 0.355 and the “Array Heatmap value (peptide array signal)” value (AIRE (PP)) was 0.4291. For the same substance, the “Array Heatmap value (peptide array signal)” value (PHF23) was 0.5596, the “Array Heatmap value (peptide array signal)” value (TAF3) was 0.2643 and the “Array Heatmap value (peptide array signal)” value (ING1) was 0.559. The “Array Heatmap value (peptide array signal)” value (PHRF1 (RP)) was 0.5109, the “Array Heatmap value (peptide array signal)” value (KDM5A (1)) was 0.4646 and the “Array Heatmap value (peptide array signal)” value (ING4) was 0.4485. For the same substance, the “Array Heatmap value (peptide array signal)” value (PHF13) was 0.6202, the “Array Heatmap value (peptide array signal)” value (DPF2 (PPC2W2)) was 0.6848 and the “Array Heatmap value (peptide array signal)” value (SP140L) was 0.3636. The “Array Heatmap value (peptide array signal)” value (PHF8) was 0.3966, the “Array Heatmap value (peptide array signal)” value (BPTF (PB)) was 0.3509 and the “Array Heatmap value (peptide array signal)” value (MLL5) was 0.5781. The “Array Heatmap value (peptide array signal)” value (CHD5 (PCC)) was 0.76.
For H4K5crK8crK12cr: H4 1-23, the “Array Heatmap value (peptide array signal)” value (ING2) was 0.5899, the “Array Heatmap value (peptide array signal)” value (KDM5B (1)) was 0.5237 and the “Array Heatmap value (peptide array signal)” value (BAZ2B) was 0.3353. The “Array Heatmap value (peptide array signal)” value (KDM4C (TTP)) was 0.3678, the “Array Heatmap value (peptide array signal)” value (KDM5A (3)) was 0.3558 and the “Array Heatmap value (peptide array signal)” value (CHD5 (PPCC)) was 0.4173. For the same substance, the “Array Heatmap value (peptide array signal)” value (PHF21A) was 0.3861, the “Array Heatmap value (peptide array signal)” value (TRIM66 (PB)) was 0.525 and the “Array Heatmap value (peptide array signal)” value (ING3) was 0.3926. The “Array Heatmap value (peptide array signal)” value (PHF2) was 0.4485, the “Array Heatmap value (peptide array signal)” value (MORC3 (CW)) was 0.2832 and the “Array Heatmap value (peptide array signal)” value (RAG2) was 0.2029. For the same substance, the “Array Heatmap value (peptide array signal)” value (KDM5B (3)) was 0.4017, the “Array Heatmap value (peptide array signal)” value (DIDO1) was 0.571 and the “Array Heatmap value (peptide array signal)” value (CHD4 (PPCC)) was 0.5037. The “Array Heatmap value (peptide array signal)” value (KDM7A) was 0.2744, the “Array Heatmap value (peptide array signal)” value (ING5) was 0.2562 and the “Array Heatmap value (peptide array signal)” value (AIRE (PP)) was 0.3482. For the same substance, the “Array Heatmap value (peptide array signal)” value (PHF23) was 0.4763, the “Array Heatmap value (peptide array signal)” value (TAF3) was 0.2134 and the “Array Heatmap value (peptide array signal)” value (ING1) was 0.4798. The “Array Heatmap value (peptide array signal)” value (PHRF1 (RP)) was 0.3292, the “Array Heatmap value (peptide array signal)” value (KDM5A (1)) was 0.3568 and the “Array Heatmap value (peptide array signal)” value (ING4) was 0.3713. The “Array Heatmap value (peptide array signal)” value (PHF13) was 0.5013, the “Array Heatmap value (peptide array signal)” value (DPF2 (PPC2W2)) was 0.6037 and the “Array Heatmap value (peptide array signal)” value (SP140L) was 0.3203. For the same substance, the “Array Heatmap value (peptide array signal)” value (PHF8) was 0.292, the “Array Heatmap value (peptide array signal)” value (BPTF (PB)) was 0.277 and the “Array Heatmap value (peptide array signal)” value (MLL5) was 0.4572. For the same substance, the “Array Heatmap value (peptide array signal)” value (CHD5 (PCC)) was 0.6269.
